Source: patent publication US20060240117A1, “Snake powder extract for treatment of cancer” (priority 2002, published 2006)

Key:
breast cancer cells = conditions: cited from earlier work
MDA-MB-435 tumor masses = conditions: cited from earlier work
B16F10 solid tumor = conditions: C57BU6 mice; cited from earlier work
angiogenesis = conditions: elicited by basic fibroblast growth factor; cited from earlier work
Artemia salina nauplii = test: Brine shrimp lethality assay; type: in vivo; conditions: 24 h, 27-28° C., triplicate
Protocol: The eggs of brine shrimp, Airtime salina (Leach), are used in monitoring bioactive compounds. The eggs are readily available in pet shops at low cost and remain viable for years in the dry state. The brine shrimp assay has advantages of being rapid (24 hrs), inexpensive, and simple. No aseptic techniques are required. It easily utilizes a large number of organisms for statistical validation and requires no special equipment and a relatively small amount of sample.
The assay was carried out with Artemia salina eggs. 50 mg of Artemia salina eggs in a beaker containing sea salt (6 g), yeast (0.9 mg) and distilled water (150 ml) were incubated at 27-28° C. for 24 hrs. The newly hatched nauplii were concentrated. From this volume, aliquots of 50 μl (approximately 18-20 nauplii) were pipette directly into a 24 well plates containing sea water (sw), −ve control (DMSO+sw), +ve control (emetine) or different concentrations of extracts (62.5-500 μg/ml). Assay was carried out in triplicate. The plates were sealed and incubated at 27-28° C. for 24 h. At the end of the 24-h incubation period, the content of each well was pipette into a watch glass individually. Survival was assessed by scoring the number of dead nauplii using a microscope. Once counts of dead nauplii had been taken, 0.5 ml of methanol was added to kill all remaining nauplii. The contents of each well were then recorded and result tabulated as (X/Y; where X number dead and Y=number of dead and alive).

tumor cell lines = test: Tumor cell proliferation, oxygen biosensor; type: cell-based; conditions: DMSO, ethanol and PBS extracts; FIGS. 6, 7, 8
Protocol: The following cell lines were utilized in the tests listed above: • Leukemia/Lymphoma: K562, Raji, Jurkatt, CEM; • Breast Carcinoma MCF-7, MDA-MB-231, MD-MB-468; • Prostate Carcinoma LNCaP, PC-3; • Colorectal Carcinoma: HT-29, HCT-116; • Pancreatic Carcinoma: PANC-1; • Gliobastaoma: GL10-1.
The DMSO and ETHANOL extract was prepared by the following process: • 4 g of powder was extracted with each • the extract was evaporated utilizing a speed vacuum centrifuge • when dried the extract was re-suspended in fresh solution at 1 g/ml. • the concentration of extract used ranges from 0.1 to 100 mg/ml
The PBS solution was prepared as follows: • dissolve 1 g/ml of powder within PBS solution • the concentration of extract used ranges from 0.1 to 100 mg/ml
Referring to FIGS. 6, 7, and 8 the effect of snake extract on tumor cell proliferation utilizing the DMSO, ethanol, and PBS solutions, is respectively analyzed. The methodology used to analyze tumor cell proliferation was oxygen biosensor. With this methodology culture plates are coated with an oxygen sensitive fluorescent compound embedded in a gas-permeable and hydrophobic matrix permanently attached to the bottom of a multi-well plate. The amount of fluorescence correlates directly to the rate of oxygen consumption in the well, providing a signal that can be directly correlated to cell growth.

Contortrostatin
cytotoxicity to cancer cells (breast cancer cells): not cytotoxic to cancer cells | proliferation of the breast cancer cells (breast cancer cells; in vitro): does not inhibit proliferation | angiogenesis induced by breast cancer (MDA-MB-435 tumor masses; immunohistochemical quantitation of vascular endothelial cells in tumor tissue): inhibiting angiogenesis induced by breast cancer | inhibition of tumor growth (MDA-MB-435 tumor masses; injected daily at 5 microgram per mouse to tumor masses): 74%

Rhodostomin
survival (B16F10 solid tumor): prolonged survival | tumor growth (B16F10 solid tumor): suppressed tumor growth | angiogenesis (angiogenesis): inhibit angiogenesis

CC[C@H]1CN2CCc3cc(OC)c(OC)cc3[C@@H]2C[C@@H]1C[C@H]1NCCc2cc(OC)c(OC)cc21 [Emetine]
mortality at 62.5 µg/mL (Artemia salina nauplii; 62.5 μg/ml): 58.2% | mortality at 125 µg/mL (Artemia salina nauplii; 125 μg/ml): 100% | mortality at 250 µg/mL (Artemia salina nauplii; 250 μg/ml): 100% | mortality at 500 µg/mL (Artemia salina nauplii; 500 μg/ml): 100%

CC[C@@]1(O)C(=O)OCc2c1cc1n(c2=O)Cc2cc3ccccc3nc2-1 [Camptothecin]
inhibition of tumor cell proliferation (tumor cell lines): more effective at inhibiting cell proliferation of different cell lines than the snake powder extract
